Source: patent US20260015332A1, “SYNTHESIS METHOD AND APPLICATION OF BENZOTHIASELENAZOLE-1-OXIDE COMPOUND AND DERIVATIVE THEREOF” (priority 2022, published 2026)

Biological target: M^pro protein of SARS-CoV-2 (3CLpro, P132H mutation) (Severe acute respiratory syndrome coronavirus 2, UniProt P0DTD1, P3395H)
Format: biochemical

`O=S1(c2ccccc2)=N[Se]c2ccccc21` (stereo not shown) [Compound 1, 1-phenylbenzo[d][1,3,2]thiaselenazole-1-ketone] was tested, and the “inhibitory activity against the M^pro protein of SARS-CoV-2 compared with ebselen (EBS) control” value was “superior to that of the ebselen (EBS) control group”.
